Data: paper PMC3532212 (PLoS ONE, 2012)

Assays:
[1] = Plasma concentrations during escalating i.v. infusion in anesthetized rats; assay type: in vivo; settings: anesthetized rat, FTY720 i.v.
Protocol: The cardiovascular effects of FTY720 and BAF312 were tested in anesthetized rats (180–200 g). In brief, male Sprague Dawley rats (Charles River) were anesthetized with Inactin (110 mg/kg i.p.) and a tracheotomy performed. The femoral artery and veins were catheterized for measurement of mean arterial pressure and heart rate, collection of blood samples at 20-min intervals (0.2 mL/sample), and for compound infusion/hydration as previously described, [24]; blood samples were also withdrawn in vehicle-treated control rats. FTY720, infused as a hydrochloride salt (0.1, 0.3, 1.0 mg/kg/20-min free base equivalent solubilized in a 100% PEG-400 vehicle), or BAF312 (0.5, 1.5, 5.0 mg/kg/20-min solubilized in a 100% PEG-400 vehicle) were administered via three escalating 20-min infusions (0.011 mL/min) followed by a 1-hr post-treatment period. A blood sample was withdrawn at 20, 40, 60, and 120-minutes for analysis of plasma concentrations of the parent compound, and in the case of FTY720, also the phosphorylated metabolite, (S)-FTY720-P. Statistical significance (p<0.05) was based on a t-test comparing treatment change from baseline (baseline was defined as the period from −30 to 0 minutes) vs. vehicle controls change from baseline at each timepoint without adjustment for multiple comparisons. In a separate group of anesthetized rats in which left ventricular (LV) contractility was also recorded with a Millar pressure transducer introduced into the left ventricle, BAF312 was infused in the same dosing regimen as the studies described above (0.5, 1.5, 5.0 mg/kg/20-min solubilized in a 100% PEG-400 vehicle) and effects on LV dP/dtmax were recorded.

[2] = Plasma concentrations in repeat-dosing study, satellite rats; assay type: in vivo, rat; settings: for Plasma concentration: rat, mean±SEM; for Plasma concentration at Tmax / Terminal plasma concentration at Tmax: satellite rats; for Plasma concentration at Tmax: day 1; for Terminal plasma concentration at Tmax: last day of study
Protocol: Mean arterial pressure was assessed in conscious, freely moving male Sprague Dawley rats (n = 6–8/group; Charles River) instrumented with telemetry transmitters (DSI-Ponemah) and housed in metabolism cages as previously described, [26]. Tested compounds were solubilized in a 0.5% Methylcellulose/0.015% Tween 80 vehicle that was also dosed alone (p.o./QD, 5 mL/kg) as a control in the study. FTY720 was administered p.o. at 0.3, 1.0, 3.0, 10.0 mg/kg p.o. as a single dose or p.o./QD at 0.5, 1.5, and 5.0 mg/kg in a chronic study. BAF312 was administered p.o/QD at 0.3, 3.0, and 30 mg/kg as a single dose and in a chronic study. Mean arterial pressure and heart rate are shown as 1-hr and/or 24-hr mean values±SEM as described in the results. Blood samples in satellite rats were withdrawn at various timepoints as described in the results for analysis of plasma concentrations of the parent compound and, in the case of FTY720, also the phosphorylated metabolite, (S)-FTY720-P. Statistical analysis for the single-dose acute studies was based on one-way ANOVA to compare the treatment groups vs. vehicle for each time period after dosing (0–24 hrs, 24–48 hrs, and 48–72 hrs); statistical significance (p<0.05) was detected by Dunnett’s post-hoc test to compare treatment with vehicle controls. The statistical analysis in the chronic studies were based on one-way ANOVA with repeated measures to compare the treatment arms; statistical significance (p<0.05) was detected by Dunnett’s post-hoc test to compare treatment with vehicle controls.

[3] = CSF concentrations after a single oral dose of FTY720, satellite rats; assay type: in vivo, rat; settings: FTY720 3.0 or 10 mg/kg single oral dose, 4, 8, 24, 72-hrs post-dose
Protocol: Prior to longer-term hypertension studies with FTY720 an acute, single oral-dose study was performed to define the lower and upper limits of a pharmacologically-active dose with respect to acute hemodynamic effects. […] Values of both the parent and metabolite were detectable through at least 72-hrs post-dose. Tissue concentrations in the brain, skeletal muscle, and CSF were also determined in a separate group of satellite rats (please see Supplementary Figure, S2 ). Relative to the vehicle control group, FTY720 elicited dose-dependent and sustained increases in mean arterial pressure after a single oral dose, an effect that reached statistical significance in the 3 and 10 mg/kg dose groups (to 13.5±1.8 and 19.9±2.8 mmHg above baseline, respectively, based on a 24-hr mean values on day 1 vs. 3.6±1.5 mmHg in vehicle controls, Figure 4 , A). […] The acute hemodynamic effects of a single oral dose of BAF312 (0.3, 3.0, and 30 mg/kg) were also quantified.
A blood sample or tissues were harvested from satellite rats at 4, 8, 24, and 72-hrs post-dose. […] (TIF) Click here for additional data file.

Plasma concentration ([1]; end of 0.1 mg/kg/20 min infusion, listed as phosphorylated FTY720, 0.1 mg/kg): 285 ± 87 nM
Plasma concentration ([1]; end of 0.3 mg/kg/20 min infusion, listed as phosphorylated FTY720, 0.3 mg/kg): 683 ± 214 nM
Plasma concentration ([1]; end of 1.0 mg/kg/20 min infusion, listed as phosphorylated FTY720, 1 mg/kg): 908 ± 264 nM
Plasma concentration ([1]; end of 60-min post-treatment period, listed as phosphorylated FTY720): 211 ± 17 nM
Plasma concentration ([2]; FTY720 0.5 mg/kg/d p.o., Day 1, 4 hr post-dose): 46 ± 5 nM
Plasma concentration ([2]; FTY720 0.5 mg/kg/d p.o., Day 1, 8 hr post-dose): 103 ± 24 nM
Plasma concentration ([2]; FTY720 0.5 mg/kg/d p.o., Day 1, 24 hr post-dose): 65 ± 23 nM
Plasma concentration ([2]; FTY720 0.5 mg/kg/d p.o., Terminal (last day), 0-hr): 141 ± 31 nM
Plasma concentration ([2]; FTY720 0.5 mg/kg/d p.o., Terminal (last day), 4 hr post-dose): 229 ± 40 nM
Plasma concentration ([2]; FTY720 0.5 mg/kg/d p.o., Terminal (last day), 8 hr post-dose): 478 ± 303 nM
Plasma concentration ([2]; FTY720 0.5 mg/kg/d p.o., Terminal (last day), 24 hr post-dose): 546 ± 359 nM
Plasma concentration ([2]; FTY720 1.5 mg/kg/d p.o., Day 1, 4 hr post-dose): 231 ± 1 nM
Plasma concentration ([2]; FTY720 1.5 mg/kg/d p.o., Day 1, 8 hr post-dose): 275 ± 55 nM
Plasma concentration ([2]; FTY720 1.5 mg/kg/d p.o., Day 1, 24 hr post-dose): 264 ± 79 nM
Plasma concentration ([2]; FTY720 1.5 mg/kg/d p.o., Terminal (last day), 0-hr): 690 ± 136 nM
Plasma concentration ([2]; FTY720 1.5 mg/kg/d p.o., Terminal (last day), 4 hr post-dose): 800 ± 77 nM
Plasma concentration ([2]; FTY720 1.5 mg/kg/d p.o., Terminal (last day), 8 hr post-dose): 647 ± 121 nM
Plasma concentration ([2]; FTY720 1.5 mg/kg/d p.o., Terminal (last day), 24 hr post-dose): 560 ± 70 nM
Plasma concentration ([2]; FTY720 5.0 mg/kg/d p.o., Day 1, 4 hr post-dose): 506 ± 74 nM
Plasma concentration ([2]; FTY720 5.0 mg/kg/d p.o., Day 1, 8 hr post-dose): 696 ± 279 nM
Plasma concentration ([2]; FTY720 5.0 mg/kg/d p.o., Day 1, 24 hr post-dose): 773 ± 55 nM
Plasma concentration ([2]; FTY720 5.0 mg/kg/d p.o., Terminal (last day), 0-hr): 2344 ± 356 nM
Plasma concentration ([2]; FTY720 5.0 mg/kg/d p.o., Terminal (last day), 4 hr post-dose): 2913 ± 238 nM
Plasma concentration ([2]; FTY720 5.0 mg/kg/d p.o., Terminal (last day), 8 hr post-dose): 1508 ± 316 nM
Plasma concentration ([2]; FTY720 5.0 mg/kg/d p.o., Terminal (last day), 24 hr post-dose): 1561 ± 230 nM
Plasma concentration at Tmax ([2]; FTY720 0.5 mg/kg/d p.o.): 103 ± 24 nM
Terminal plasma concentration at Tmax ([2]; FTY720 0.5 mg/kg/d p.o.): 546 ± 358 nM
Plasma concentration at Tmax ([2]; FTY720 1.5 mg/kg/d p.o.): 275 ± 55 nM
Terminal plasma concentration at Tmax ([2]; FTY720 1.5 mg/kg/d p.o.): 800 ± 77 nM
Plasma concentration at Tmax ([2]; FTY720 5.0 mg/kg/d p.o.): 773 ± 55 nM
Terminal plasma concentration at Tmax ([2]; FTY720 5.0 mg/kg/d p.o.): 2913 ± 92 nM
concentration in the CSF [3]: No compound was detectable
Compound: CCCCCCCCc1ccc(CC[C@](N)(CO)COP(=O)(O)O)cc1 [FTY720-P]
